This is an account of results in patent US20260109721A1, “IONIZABLE CATIONIC LIPIDS INCORPORATING SILICON: SYNTHESIS AND LNP FORMULATION” (priority 2023, published 2026).

The data set is described as follows: Encapsulation efficiency of loaded LNPs, RiboGreen RNA assay (Method A). The settings on record: encapsulation efficiency of mRNA-loaded LNP, Method A, RiboGreen. It counts as physicochemical. On the procedure:
The synthesized lipids were tested in term of in vitro transfection efficacy and toxicity on HeLa cells. In order to perform the mentioned biological tests, appropriate LNPs had to be formulated from the synthesized lipids. The formulation technique was different in Method A and B. The particle size, polydispersity index (PDI) and zeta potential of resulting LNPs were determined by means of Dynamic Light Scattering technique (DLS). Prior to biological testing the encapsulation efficiency (EE) of the loaded LNPs was determined by using RiboGreen RNA assay. In case of Method A Luc mRNA while in case of Method B GFP mRNA was transfected into the cells. In parallel with the transfection experiments, toxicity of the investigated LNPs was determined, in case of Method A resazurin assay while in case of Method B MTT assay was used. Additionally, the toxicity of the lipids was investigated on HepG2 cells and IC50 values were determined.
• 1. Preparation of sample stock solutions: In the top row of the 96-well plate (Row A in the plate), add 297 μL of TE buffer pH 7.4 (see Table 1) to a single well for each sample plus a single well for a PBS blank using a multichannel pipette.
• 2. Add 3 μL of sample (at 0.5 mg/ml) to these wells for a final volume of 300 μL. Add 3 μL of PBS to the blank well. Pipette to mix. This is your stock solution for each sample. The final RNA concentration of these stock solutions should be approximately 4-7 μg/mL. • 3. mRNA-LNP sample setup: • a. Add 50 μL of TE buffer pH 7.5 to the two wells directly below each sample (Rows B and C in the plate). • b. Add 50 μL of sample stock solution from Row A into the wells in Rows B and C (this assay is run in duplicate. All liquid handling should be done using a multichannel pipette). • c. Add 50 μL of Triton buffer to the wells in Rows D and E (in the plate) below each sample. • d. Add 50 μL of sample stock solution from Row A into the wells in Rows D and E. • 4. RiboGreen RNA standard curve setup: Dilute the RNA standard to produce an RNA stock at a final concentration of 20 μg/mL in TE buffer pH 7.4. The final volume should be 150 μL. Set up a standard curve (in duplicate) as using the RNA stock (20 μg/mL siRNA), TE buffer pH 7.5, and Triton X-100 buffer according the Table 2 and Table 3 below.
• 5. Once samples and standard curve are plated, incubate the plate at 37° C. for 10 min to lyse mRNA-LNP in the presence of Triton X-100 buffer. • 6. Meanwhile, prepare RiboGreen Solution: Sum the total number of sample wells and standard curve wells. Add three to this number, and multiply the total by 100. This is the total volume, in μL, of RiboGreen Solution needed for this assay. In a 15 mL RNAse-free Falcon tube, dilute the RiboGreen Reagent 1:100 into TE buffer pH 7.5 to the total volume calculated. • 7. Addition of RiboGreen Solution and sample readings: Remove a 96-well plate from 37° C. incubator; let it cool to room temperature as RiboGreen binding is somewhat temperature dependent. Add 100 μL of RiboGreen Solution to each well. Pop any air bubbles with a needle. Read using fluorescent plate reader (excitation=480, emission=525). • 8. Sample analysis: Use the data generated by the RiboGreen standard curve to calculate the concentration of mRNA. Transfection Efficiency with Luciferase-mRNA (Method A)
As to `CCCCCCCCC(CCCCCC)C(=O)OCCCCCCN(CCCCO)CCCCCCOC(=O)C(CCCCCC)CCCCCCCC` (stereo not drawn) [ALC-0315, reference compound], the “EE (%)” value was found to be 94%. Then `CCCCC/C=C\C/C=C\CCCCCCCCOC(CCCCCN(CCO)CCO)O[Si](C)(C)OCCCCCCCC/C=C\C/C=C\CCCCC` (stereo not drawn) [Example 39, (21Z,24Z)-3-(2-hydroxyethyl)-11,11-dimethyl-9-(((9Z,12Z)-octadeca-9,12-dien-1-yl)oxy)-10,12-dioxa-3-aza-11-silatriaconta-21,24-dien-1-ol], with 87%; and `CCCCC/C=C\C/C=C\CCCCCCCCO[Si](C)(C)OC(CCCCCCC/C=C\C/C=C\CCCCC)OCCCCCCN(CCO)CCO` (stereo not drawn) [Example 40, (23Z,26Z)-11-((8Z,11Z)-heptadeca-8,11-dien-1-yl)-3-(2-hydroxyethyl)-13,13-dimethyl-10,12,14-trioxa-3-aza-13-siladotriaconta-23,26-dien-1-ol], with 87%; and `CCCCCCCC/C=C\CCCCCCCCOC(CCCCCCCCCCCCCCC)O[Si](C)(C)OCCCCCCN(CCO)CCO` (stereo not drawn) [Example 41, (Z)-3-(2-hydroxyethyl)-11,11-dimethyl-13-pentadecyl-10,12,14-trioxa-3-aza-11-siladotriacont-23-en-1-ol], with 78%. For `CCCCCCCC/C=C\CCCCCCCC(OCCCCCCCCCCCCCCCC)O[Si](C)(C)OCCCCCCN(CCO)CCO` (stereo not drawn) [Example 42, (Z)-13-(heptadec-8-en-1-yl)-3-(2-hydroxyethyl)-11,11-dimethyl-10,12,14-trioxa-3-aza-11-silatriacontan-1-ol] the value was 87%. For `CCCCC/C=C\C/C=C\CCCCCCCCOC(CCCCCCCCCCCCCCC)O[Si](C)(C)OCCCCCCN(CCO)CCO` (stereo not drawn) [Example 43, (23Z,26Z)-3-(2-hydroxyethyl)-11,11-dimethyl-13-pentadecyl-10,12,14-trioxa-3-aza-11-siladotriaconta-23,26-dien-1-ol] the value was 83%. In the case of `CCCCC/C=C\C/C=C\CCCCCCCC(OCCCCCCCCCCCCCCCC)O[Si](C)(C)OCCCCCCN(CCO)CCO` (stereo not drawn) [Example 44, 13-((8Z,11Z)-heptadeca-8,11-dien-1-yl)-3-(2-hydroxyethyl)-11,11-dimethyl-10,12,14-trioxa-3-aza-11-silatriacontan-1-ol], the “EE (%)” value came to 82%. For `CCCCC/C=C\C/C=C\CCCCCCCC(OCCCCCCCC/C=C\CCCCCCCC)O[Si](C)(C)OCCCCCCN(CCO)CCO` (stereo not drawn) [Example 45, (Z)-13-((8Z,11Z)-heptadeca-8,11-dien-1-yl)-3-(2-hydroxyethyl)-11,11-dimethyl-10,12,14-trioxa-3-aza-11-siladotriacont-23-en-1-ol] the value was 82%; for `CCCCC/C=C\C/C=C\CCCCCCCCOC(CCCCCCC/C=C\CCCCCCCC)O[Si](C)(C)OCCCCCCN(CCO)CCO` (stereo not drawn) [Example 46, (23Z,26Z)-13-((Z)-heptadec-8-en-1-yl)-3-(2-hydroxyethyl)-11,11-dimethyl-10,12,14-trioxa-3-aza-11-siladotriaconta-23,26-dien-1-ol], 81%; for `CCCCCCCC/C=C\CCCCCCCCOC(CCCCCCC/C=C\CCCCCCCC)O[Si](C)(C)OCCCCCCN(CCO)CCO` (stereo not drawn) [Example 47, (Z)-13-((Z)-heptadec-8-en-1-yl)-3-(2-hydroxyethyl)-11,11-dimethyl-10,12,14-trioxa-3-aza-11-siladotriacont-23-en-1-ol], 88%. Then `CCCCCCCCCCCCCCCCOC(CCCCCCCCCCCCCCC)O[Si](C)(C)OCCCCCCN(CCO)CCO` (stereo not drawn) [Example 49, 3-(2-hydroxyethyl)-11,11-dimethyl-13-pentadecyl-10,12,14-trioxa-3-aza-11-silatriacontan-1-ol], with 84%. For `CCCCCCCC/C=C\CCCCCCCC(OCC(CCCCCC)CCCCCCCC)O[Si](C)(C)OCCCCCCN(CCO)CCO` (stereo not drawn) [Example 50, (Z)-13-(heptadec-8-en-1-yl)-16-hexyl-3-(2-hydroxyethyl)-11,11-dimethyl-10,12,14-trioxa-3-aza-11-silatetracosan-1-ol] the value was 86%; for `CCCCCCCC/C=C\CCCCCCCCOC(CC[C@@H](C)C1CCC2C3CCC4C[C@H](OC)CC[C@]4(C)C3CC[C@@]21C)O[Si](C)(C)OCCCCCCN(CCO)CCO` (stereo partly drawn) [Example 51, (Z)-3-(2-hydroxyethyl)-13-((3R)-3-((3R,10S,13R)-3-methoxy-10,13-dimethylhexadecahydro-1H-cyclopenta[a]phenanthren-17-yl)butyl)-11,11-dimethyl-10,12,14-trioxa-3-aza-11-siladotriacont-23-en-1-ol], 89%. On to `CCCCC/C=C\C/C=C\CCCCCCCCOC(CC[C@@H](C)C1CCC2C3CCC4C[C@H](OC)CC[C@]4(C)C3CC[C@@]21C)O[Si](C)(C)OCCCCCCN(CCO)CCO` (stereo partly drawn) [Example 52, (23Z,26Z)-3-(2-hydroxyethyl)-13-((3R)-3-((3R,10S,13R)-3-methoxy-10,13-dimethylhexadecahydro-1H-cyclopenta[a]phenanthren-17-yl)butyl)-11,11-dimethyl-10,12,14-trioxa-3-aza-11-siladotriaconta-23,26-dien-1-ol], for which the “EE (%)” value is 86%. Regarding `CCCCC/C=C\C/C=C\CCCCCCCCOC(CCCCCCC/C=C\C/C=C\CCCCC)O[Si](C)(C)OCCCCCCN1CCOCC1` (stereo not drawn) [Example 55, 4-((20Z,23Z)-10-((8Z,11Z)-heptadeca-8,11-dien-1-yl)-8,8-dimethyl-7,9,11-trioxa-8-silanonacosa-20,23-dien-1-yl)morpholine], the “EE (%)” value came to 21%. Then `CCCCC/C=C\C/C=C\CCCCCCCCOC(CCCCCCC/C=C\C/C=C\CCCCC)O[Si](C)(C)OCCCCCCN1CCCCC1` (stereo not drawn) [Example 57, 1-((20Z,23Z)-10-((8Z,11Z)-heptadeca-8,11-dien-1-yl)-8,8-dimethyl-7,9,11-trioxa-8-silanonacosa-20,23-dien-1-yl)piperidine], with 87%; and `CCCCC/C=C\C/C=C\CCCCCCCCOC(CCCCCCC/C=C\C/C=C\CCCCC)O[Si](C)(C)OCCCCCCN(C)CC(O)CO` (stereo not drawn) [Example 59, (24Z,27Z)-14-((8Z,11Z)-heptadeca-8,11-dien-1-yl)-4,12,12-trimethyl-11,13,15-trioxa-4-aza-12-silatritriaconta-24,27-diene-1,2-diol], with 88%. For `CCCCC/C=C\C/C=C\CCCCCCCCOC(CCCCCCC/C=C\C/C=C\CCCCC)O[Si](C)(C)OCCCCCCN(C)CCCCO` (stereo not drawn) [Example 60, (25Z,28Z)-15-((8Z,11Z)-heptadeca-8,11-dien-1-yl)-5,13,13-trimethyl-12,14,16-trioxa-5-aza-13-silatetratriaconta-25,28-dien-1-ol] the value was 84%. Then `CCCCC/C=C\C/C=C\CCCCCCCCOC(CCCCCCC/C=C\C/C=C\CCCCC)O[Si](C)(C)OCCCCCCN(CCCCO)CCCCO` (stereo not drawn) [Example 62, (25Z,28Z)-15-((8Z,11Z)-heptadeca-8,11-dien-1-yl)-5-(4-hydroxybutyl)-13,13-dimethyl-12,14,16-trioxa-5-aza-13-silatetratriaconta-25,28-dien-1-ol], with 84%. As to `CCCCC/C=C\C/C=C\CCCCCCCCOC(CCCCCCC/C=C\C/C=C\CCCCC)O[Si](C)(C)OCCCCCCN1CCCCC1CO` (stereo not drawn) [Example 64, (1-((20Z,23Z)-10-((8Z,11Z)-heptadeca-8,11-dien-1-yl)-8,8-dimethyl-7,9,11-trioxa-8-silanonacosa-20,23-dien-1-yl)piperidin-2-yl)methanol], the “EE (%)” value is 85%.

On to `CCCCC/C=C\C/C=C\CCCCCCCCOC(CCCCCN(C)CC(O)CO)O[Si](C)(C)OCCCCCCCC/C=C\C/C=C\CCCCC` (stereo not drawn) [Example 66, (22Z,25Z)-4,12,12-trimethyl-10-(((9Z,12Z)-octadeca-9,12-dien-1-yl)oxy)-11,13-dioxa-4-aza-12-silahentriaconta-22,25-diene-1,2-diol], for which the “EE (%)” value was 82%.
